According to publication PMC3298469, “A selective and potent CXCR3 antagonist SCH 546738 attenuates the development of autoimmune diseases and delays graft rejection” (BMC Immunology, 2012):

Experiments:
Experiment in all cases: GPCR counterscreen binding assay
[1] = target: Adenosine A1 (Homo sapiens, UniProt P30542)
Description: (§1) SCH 546738 was tested at concentrations of 1-10 μM against a panel of 49 GPCR binding assays. Most of the assays were not affected by SCH 546738 (Table 2). […] In addition, SCH 546738 has a favourable pharmacokinetic profile in rodents. […] Therefore, SCH 546738 is suitable for in vivo preclinical studies.

[2] = target: Adenosine A2A (Homo sapiens, UniProt P29274)
Description: as §1

[3] = target: Adrenergic α1A (Homo sapiens, UniProt P35348)
Description: as §1

[4] = target: Adrenergic α1B (Homo sapiens, UniProt P35368)
Description: as §1

[5] = target: Adrenergic α2A (Homo sapiens, UniProt P08913)
Description: as §1

[6] = target: Adrenergic α2B (Homo sapiens, UniProt P18089)
Description: as §1

[7] = target: Adrenergic α2C (Homo sapiens, UniProt P18825)
Description: as §1

[8] = target: CCR3 (Homo sapiens, UniProt P51677)
Description: as §1

[9] = target: CCR5 (Homo sapiens, UniProt P51681)
Description: as §1

[10] = target: CCR7 (Homo sapiens, UniProt P32248)
Description: as §1

[11] = target: CXCR1 (Homo sapiens, UniProt P25024)
Description: as §1

[12] = target: Delta opiate (Homo sapiens, UniProt P41143)
Description: as §1

[13] = target: Dopamine D2 (Homo sapiens, UniProt P14416)
Description: as §1

[14] = target: Dopamine D3 (Homo sapiens, UniProt P35462)
Description: as §1

[15] = target: Dopamine D4.2 (Homo sapiens, UniProt P21917, DEL265-296)
Description: as §1

[16] = target: Kappa opiate (Homo sapiens, UniProt P41145)
Description: as §1

[17] = target: MCHR1 (Homo sapiens, UniProt Q99705)
Description: as §1

[18] = target: MRGX1 (Homo sapiens, UniProt Q96LB2)
Description: as §1

[19] = target: MRGX2 (Homo sapiens, UniProt Q96LB1)
Description: as §1

[20] = target: Mu opiate (Homo sapiens, UniProt P35372)
Description: as §1

[21] = target: Muscarinic M3 (Homo sapiens, UniProt P20309)
Description: as §1

[22] = target: Muscarinic M4 (Homo sapiens, UniProt P08173)
Description: as §1

[23] = target: Muscarinic M5 (Homo sapiens, UniProt P08912)
Description: as §1

[24] = target: Neurokinin NK1 (Homo sapiens, UniProt P25103)
Description: as §1

[25] = target: Neurokinin NK2 (Homo sapiens, UniProt P21452)
Description: as §1

[26] = target: Neuropeptide Y (Y2) (Homo sapiens, UniProt P49146)
Description: as §1

[27] = target: Neuropeptide Y (Y4) (Homo sapiens, UniProt P50391)
Description: as §1

[28] = target: Neuropeptide Y (Y5) (Homo sapiens, UniProt Q15761)
Description: as §1

[29] = target: Nociceptin NOP1 (Homo sapiens, UniProt P41146)
Description: as §1

[30] = target: Prokineticin PKR2 (Homo sapiens, UniProt Q8NFJ6)
Description: as §1

[31] = target: Purinergic P2Y1 (Homo sapiens, UniProt P47900)
Description: as §1

[32] = tested on: Purinergic P2Y1_2; settings: @ 4 μM
Description: as §1

[33] = target: Serotonergic 5HT1A (Homo sapiens, UniProt P08908)
Description: as §1

[34] = target: Vasopressin (V1a) (Homo sapiens, UniProt P37288)
Description: as §1

Prokineticin PKR2, sequence (Q8NFJ6 whole entry): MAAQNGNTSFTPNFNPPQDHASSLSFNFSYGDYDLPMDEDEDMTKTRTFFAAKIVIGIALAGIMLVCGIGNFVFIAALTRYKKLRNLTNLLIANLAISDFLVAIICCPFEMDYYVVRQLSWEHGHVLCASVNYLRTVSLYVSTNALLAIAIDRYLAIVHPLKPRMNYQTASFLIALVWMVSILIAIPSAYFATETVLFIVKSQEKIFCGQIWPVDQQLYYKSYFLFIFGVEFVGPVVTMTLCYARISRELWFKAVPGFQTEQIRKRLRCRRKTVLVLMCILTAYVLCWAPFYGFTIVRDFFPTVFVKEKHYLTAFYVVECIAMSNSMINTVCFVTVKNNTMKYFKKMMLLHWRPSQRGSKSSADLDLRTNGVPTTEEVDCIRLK
MRGX1, sequence (Q96LB2 whole entry): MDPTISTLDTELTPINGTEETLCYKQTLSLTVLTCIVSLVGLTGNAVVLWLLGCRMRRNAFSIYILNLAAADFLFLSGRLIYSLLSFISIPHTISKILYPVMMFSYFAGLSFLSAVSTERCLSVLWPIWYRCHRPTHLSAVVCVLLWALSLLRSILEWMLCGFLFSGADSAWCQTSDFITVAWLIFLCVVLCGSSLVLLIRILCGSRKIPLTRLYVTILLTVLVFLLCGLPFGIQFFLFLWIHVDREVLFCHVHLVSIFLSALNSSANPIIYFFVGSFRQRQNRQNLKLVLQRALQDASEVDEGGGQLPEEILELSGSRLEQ
Neurokinin NK1, sequence (P25103 whole entry): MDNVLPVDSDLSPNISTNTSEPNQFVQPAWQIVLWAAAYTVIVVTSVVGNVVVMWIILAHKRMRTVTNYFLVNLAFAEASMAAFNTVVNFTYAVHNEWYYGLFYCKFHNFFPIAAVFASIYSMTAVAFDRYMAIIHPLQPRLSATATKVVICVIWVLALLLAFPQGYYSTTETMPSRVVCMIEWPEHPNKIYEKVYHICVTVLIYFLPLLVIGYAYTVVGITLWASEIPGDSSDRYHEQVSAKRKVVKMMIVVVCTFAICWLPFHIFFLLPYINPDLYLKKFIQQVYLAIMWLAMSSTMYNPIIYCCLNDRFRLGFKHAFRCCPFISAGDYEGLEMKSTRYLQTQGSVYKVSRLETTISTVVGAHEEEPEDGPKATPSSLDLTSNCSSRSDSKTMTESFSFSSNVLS
Adrenergic α2C, sequence (P18825 whole entry): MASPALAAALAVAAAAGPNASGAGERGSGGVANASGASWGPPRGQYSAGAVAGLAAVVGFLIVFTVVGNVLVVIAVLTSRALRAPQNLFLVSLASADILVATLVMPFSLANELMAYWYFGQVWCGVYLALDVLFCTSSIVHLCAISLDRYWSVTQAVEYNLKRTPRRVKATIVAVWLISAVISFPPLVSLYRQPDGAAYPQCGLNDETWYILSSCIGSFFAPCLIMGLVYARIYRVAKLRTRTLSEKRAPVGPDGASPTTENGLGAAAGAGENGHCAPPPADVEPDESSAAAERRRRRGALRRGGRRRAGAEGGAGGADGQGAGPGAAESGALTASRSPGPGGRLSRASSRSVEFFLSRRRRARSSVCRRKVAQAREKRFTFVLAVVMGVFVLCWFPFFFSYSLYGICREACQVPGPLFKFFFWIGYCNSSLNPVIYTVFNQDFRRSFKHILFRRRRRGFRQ
Nociceptin NOP1, sequence (P41146 whole entry): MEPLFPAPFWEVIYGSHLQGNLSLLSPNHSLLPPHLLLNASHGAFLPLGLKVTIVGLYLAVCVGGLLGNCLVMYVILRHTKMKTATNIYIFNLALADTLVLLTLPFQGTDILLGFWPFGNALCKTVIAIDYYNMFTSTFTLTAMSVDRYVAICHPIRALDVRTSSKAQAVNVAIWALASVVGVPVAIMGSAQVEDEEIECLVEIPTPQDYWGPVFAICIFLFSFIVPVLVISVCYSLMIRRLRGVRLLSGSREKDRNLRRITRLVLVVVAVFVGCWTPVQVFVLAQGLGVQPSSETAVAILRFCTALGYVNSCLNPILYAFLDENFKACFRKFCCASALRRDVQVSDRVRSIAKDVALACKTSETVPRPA
CXCR1, sequence (P25024 whole entry): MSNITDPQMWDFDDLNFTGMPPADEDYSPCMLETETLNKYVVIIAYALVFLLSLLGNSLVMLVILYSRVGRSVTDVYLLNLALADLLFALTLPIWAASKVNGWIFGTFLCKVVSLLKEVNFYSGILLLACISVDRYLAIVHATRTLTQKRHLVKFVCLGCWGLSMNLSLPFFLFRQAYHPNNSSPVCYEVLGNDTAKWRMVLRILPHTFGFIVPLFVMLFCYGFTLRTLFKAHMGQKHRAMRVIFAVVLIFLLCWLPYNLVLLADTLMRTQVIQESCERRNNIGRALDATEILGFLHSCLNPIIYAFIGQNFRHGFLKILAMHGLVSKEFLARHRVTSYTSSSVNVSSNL
Dopamine D3, sequence (P35462 whole entry): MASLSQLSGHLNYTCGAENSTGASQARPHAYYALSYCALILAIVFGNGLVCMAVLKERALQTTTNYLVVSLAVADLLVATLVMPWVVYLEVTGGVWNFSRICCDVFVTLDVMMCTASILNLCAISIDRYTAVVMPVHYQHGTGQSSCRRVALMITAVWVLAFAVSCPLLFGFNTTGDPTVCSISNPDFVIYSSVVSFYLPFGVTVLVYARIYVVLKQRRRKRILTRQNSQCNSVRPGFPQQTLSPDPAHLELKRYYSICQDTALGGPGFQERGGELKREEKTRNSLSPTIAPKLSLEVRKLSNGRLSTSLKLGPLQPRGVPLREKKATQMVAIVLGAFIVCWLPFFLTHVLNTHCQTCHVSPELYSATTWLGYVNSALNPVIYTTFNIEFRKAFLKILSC
Purinergic P2Y1, sequence (P47900 whole entry): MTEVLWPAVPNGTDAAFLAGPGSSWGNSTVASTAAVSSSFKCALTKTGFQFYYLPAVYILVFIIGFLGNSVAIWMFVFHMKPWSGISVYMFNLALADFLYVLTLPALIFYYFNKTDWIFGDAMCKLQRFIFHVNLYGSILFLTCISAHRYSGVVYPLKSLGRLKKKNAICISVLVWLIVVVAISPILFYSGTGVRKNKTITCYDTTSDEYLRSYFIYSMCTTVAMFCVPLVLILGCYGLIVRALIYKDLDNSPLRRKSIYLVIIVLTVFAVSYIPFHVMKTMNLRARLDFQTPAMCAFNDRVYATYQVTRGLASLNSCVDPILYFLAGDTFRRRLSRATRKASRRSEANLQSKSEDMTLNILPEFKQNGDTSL
MRGX2, sequence (Q96LB1 whole entry): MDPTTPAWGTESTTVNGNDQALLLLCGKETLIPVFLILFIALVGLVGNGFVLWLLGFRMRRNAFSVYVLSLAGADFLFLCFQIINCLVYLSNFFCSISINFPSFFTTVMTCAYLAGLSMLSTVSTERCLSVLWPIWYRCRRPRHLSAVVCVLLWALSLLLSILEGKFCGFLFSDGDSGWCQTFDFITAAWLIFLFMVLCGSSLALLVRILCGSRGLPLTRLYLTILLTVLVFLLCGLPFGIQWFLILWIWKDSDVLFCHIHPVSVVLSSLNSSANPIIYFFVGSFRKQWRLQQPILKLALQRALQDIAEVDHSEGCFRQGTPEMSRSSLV
Adenosine A1, sequence (P30542 whole entry): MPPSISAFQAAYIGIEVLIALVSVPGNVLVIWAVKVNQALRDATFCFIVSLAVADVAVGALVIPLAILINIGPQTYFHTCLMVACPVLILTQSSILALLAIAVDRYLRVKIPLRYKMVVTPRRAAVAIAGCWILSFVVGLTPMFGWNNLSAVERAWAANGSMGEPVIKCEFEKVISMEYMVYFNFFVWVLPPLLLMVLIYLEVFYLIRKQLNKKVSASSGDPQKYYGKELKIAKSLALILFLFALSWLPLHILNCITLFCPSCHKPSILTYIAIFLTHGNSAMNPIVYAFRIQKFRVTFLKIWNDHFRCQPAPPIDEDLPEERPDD
Kappa opiate, sequence (P41145 whole entry): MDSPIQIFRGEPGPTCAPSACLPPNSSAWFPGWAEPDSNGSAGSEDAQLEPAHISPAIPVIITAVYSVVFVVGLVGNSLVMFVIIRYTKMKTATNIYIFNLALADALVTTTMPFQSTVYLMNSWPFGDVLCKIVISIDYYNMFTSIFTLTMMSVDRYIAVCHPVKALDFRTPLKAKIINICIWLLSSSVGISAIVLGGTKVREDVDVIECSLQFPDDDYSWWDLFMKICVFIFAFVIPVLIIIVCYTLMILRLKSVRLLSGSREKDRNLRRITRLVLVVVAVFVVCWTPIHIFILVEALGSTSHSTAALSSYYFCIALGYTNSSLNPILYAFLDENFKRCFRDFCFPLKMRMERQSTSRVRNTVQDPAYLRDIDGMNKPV
Delta opiate, sequence (P41143 whole entry): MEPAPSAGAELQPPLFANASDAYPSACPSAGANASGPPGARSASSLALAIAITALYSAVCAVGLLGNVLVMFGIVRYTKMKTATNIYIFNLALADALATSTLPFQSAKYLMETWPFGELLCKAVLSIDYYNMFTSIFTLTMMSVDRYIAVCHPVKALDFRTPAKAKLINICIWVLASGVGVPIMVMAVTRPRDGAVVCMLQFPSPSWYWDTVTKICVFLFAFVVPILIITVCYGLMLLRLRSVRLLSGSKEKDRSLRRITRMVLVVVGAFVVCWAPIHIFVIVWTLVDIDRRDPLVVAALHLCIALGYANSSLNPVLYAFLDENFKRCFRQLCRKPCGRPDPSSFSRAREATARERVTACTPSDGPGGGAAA
Dopamine D2, sequence (P14416 whole entry): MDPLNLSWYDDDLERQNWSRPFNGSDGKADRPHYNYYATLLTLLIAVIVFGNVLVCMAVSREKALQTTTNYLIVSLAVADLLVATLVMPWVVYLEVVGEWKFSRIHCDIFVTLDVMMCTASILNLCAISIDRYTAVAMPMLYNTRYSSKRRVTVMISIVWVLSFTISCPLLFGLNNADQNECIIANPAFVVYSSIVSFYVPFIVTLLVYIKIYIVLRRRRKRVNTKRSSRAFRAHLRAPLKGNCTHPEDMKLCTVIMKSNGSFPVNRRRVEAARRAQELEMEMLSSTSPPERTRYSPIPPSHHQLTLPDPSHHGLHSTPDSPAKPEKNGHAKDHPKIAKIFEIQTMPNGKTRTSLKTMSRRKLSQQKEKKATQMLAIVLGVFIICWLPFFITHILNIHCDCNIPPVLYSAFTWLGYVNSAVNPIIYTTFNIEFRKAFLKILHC

In the case of `CC[C@H]1CN(c2nc(N)c(C(N)=O)nc2Cl)CCN1C1CCN(Cc2ccc(Cl)cc2)CC1` [SCH 546738], the inhibition at 4 µM [1] is reported as 0%, the inhibition at 4 µM [2] is reported as 3% and the inhibition at 2 µM [3] is reported as 11%. It also gave an inhibition at 2 µM [4] of 25%, an inhibition at 1 µM [5] of 45% and an inhibition at 2 µM [6] of -2%. It also gave an inhibition at 1 µM [7] of 76%, an inhibition at 10 µM [8] of 17% and an inhibition at 10 µM [9] of 10%. The inhibition at 10 µM [10] was 0%, the inhibition at 10 µM [11] was 13% and the inhibition at 4 µM [12] was 12%. For the same molecule, the inhibition at 4 µM [13] was 41%, the inhibition at 10 µM [14] was 18% and the inhibition at 10 µM [15] was 18%. For the same molecule, the inhibition at 4 µM [16] was 7%, the inhibition at 10 µM [17] was 0% and the inhibition at 4 µM [18] was 1%. The inhibition at 4 µM [19] was 25%, the inhibition at 4 µM [20] was 22% and the inhibition at 4 µM [21] was 27%. For the same molecule, the inhibition at 4 µM [22] was 30%, the inhibition at 4 µM [23] was 28% and the inhibition at 2 µM [24] was 15%. The inhibition at 2 µM [25] was 0%, the inhibition at 4 µM [26] was -9% and the inhibition at 4 µM [27] was -2%. For the same molecule, the inhibition at 4 µM [28] was 12%, the inhibition at 4 µM [29] was -21% and the inhibition at 4 µM [30] was -5%. The inhibition at 4 µM [31] was 16%, the “Inhibition (%)” value [32] was 10% @ 4 μM and the inhibition at 4 µM [33] was 20%. For the same molecule, the inhibition at 4 µM [34] was 7%.
